Assay results from ChEMBL document CHEMBL4813985, “Lead optimization generates selenium-containing miconazole CYP51 inhibitors with improved pharmacological profile for the treatment of fungal infections” (Eur J Med Chem, 2021).
Values after ≈ are worked out from the molar mass of the structure shown.

Legend:
Format in all cases: functional
[1] = system: Candida albicans; test: Antifungal activity against Candida albicans CPCC400616 measured after 24 hrs by broth microdilution assay
[2] = system: Candida albicans; test: Antifungal activity against Candida albicans ATCC SC5314 measured after 24 hrs by broth microdilution assay
[3] = system: [Candida] zeylanoides; test: Antifungal activity against Candida zeylanoides CMGCC2.3739 measured after 24 hrs by broth microdilution assay; settings: Dujonia zeylanoides
[4] = system: Cryptococcus neoformans; test: Antifungal activity against Cryptococcus neoformans CMGCC2.3161 measured after 72 hrs by broth microdilution assay
[5] = system: Pichia kudriavzevii; test: Antifungal activity against Candida krusei AS2.1045 measured after 24 hrs by broth microdilution assay
[6] = system: Nakaseomyces glabratus; test: Antifungal activity against Candida glabrata measured after 24 hrs by broth microdilution assay
[7] = system: Candida parapsilosis; test: Antifungal activity against Candida parapsilosis ATCC 22019 measured after 24 hrs by broth microdilution assay; settings: Lodderomyces parapsilosis
[8] = system: Aspergillus fumigatus; test: Antifungal activity against Aspergillus fumigatus CMGCC3.7795 measured after 72 hrs by broth microdilution assay
[9] = system: Candida albicans; test: Antifungal activity against fluconazole-resistant Candida albicans CaR assessed as inhibition of microbial growth after 24 hrs by broth microdilution method
[10] = system: Candida albicans; test: Antifungal activity against fluconazole-resistant Candida albicans 17# assessed as inhibition of microbial growth after 24 hrs by broth microdilution method
[11] = system: Candida albicans; test: Antifungal activity against fluconazole-resistant Candida albicans 632 assessed as inhibition of microbial growth after 24 hrs by broth microdilution method
[12] = system: Candida albicans; test: Antifungal activity against fluconazole-resistant Candida albicans 901 assessed as inhibition of microbial growth after 24 hrs by broth microdilution method
[13] = system: Candida albicans; test: Antifungal activity against fluconazole-resistant Candida albicans 904 assessed as inhibition of microbial growth after 24 hrs by broth microdilution method

COc1ccc(C[Se]C(Cn2cncn2)c2ccc(Cl)cc2Cl)cc1 (stereo not given)
MIC [1]: 16 µg/mL (≈ 36.3 µM)
MIC [2]: 1 µg/mL (≈ 2.27 µM)
MIC [3]: 32 µg/mL (≈ 72.5 µM)
MIC [4]: 16 µg/mL (≈ 36.3 µM)
MIC [5]: 64 µg/mL (≈ 145 µM)
MIC [6]: 4 µg/mL (≈ 9.07 µM)
MIC [7]: 32 µg/mL (≈ 72.5 µM)
MIC [8]: 4 µg/mL (≈ 9.07 µM)
MIC [9]: 128 µg/mL
MIC [10]: 32 µg/mL
MIC [11]: > 128 µg/mL
MIC [12]: 128 µg/mL
MIC [13]: 128 µg/mL

COc1ccc(C[Se]C(Cn2cncn2)c2ccc(F)cc2F)cc1 (stereo not given)
MIC [1]: 1 µg/mL (≈ 2.45 µM)
MIC [2]: 2 µg/mL (≈ 4.9 µM)
MIC [3]: 32 µg/mL (≈ 78.4 µM)
MIC [4]: 32 µg/mL (≈ 78.4 µM)
MIC [5]: 32 µg/mL (≈ 78.4 µM)
MIC [6]: 2 µg/mL (≈ 4.9 µM)
MIC [7]: > 128 µg/mL
MIC [8]: 4 µg/mL (≈ 9.8 µM)
MIC [9]: 128 µg/mL
MIC [10]: 64 µg/mL
MIC [11]: > 128 µg/mL
MIC [12]: > 128 µg/mL
MIC [13]: > 128 µg/mL

Fc1ccc(C[Se]C(Cn2cncn2)c2ccc(Cl)cc2Cl)cc1 (stereo not given)
MIC [1]: 2 µg/mL (≈ 4.66 µM)
MIC [2]: 0.13 µg/mL (≈ 0.303 µM)
MIC [3]: 64 µg/mL (≈ 149 µM)
MIC [4]: 8 µg/mL (≈ 18.6 µM)
MIC [5]: 128 µg/mL (≈ 298 µM)
MIC [6]: 4 µg/mL (≈ 9.32 µM)
MIC [7]: 64 µg/mL (≈ 149 µM)
MIC [8]: 16 µg/mL (≈ 37.3 µM)
MIC [9]: > 128 µg/mL
MIC [10]: > 128 µg/mL
MIC [11]: > 128 µg/mL
MIC [12]: > 128 µg/mL
MIC [13]: > 128 µg/mL

Clc1ccc(C(Cn2cncn2)[Se]Cc2ccccc2Cl)c(Cl)c1 (stereo not given)
MIC [1]: 0.03 µg/mL (≈ 0.0673 µM)
MIC [2]: 0.13 µg/mL (≈ 0.292 µM)
MIC [3]: 16 µg/mL (≈ 35.9 µM)
MIC [4]: 2 µg/mL (≈ 4.49 µM)
MIC [5]: 0.06 µg/mL (≈ 0.135 µM)
MIC [6]: 4 µg/mL (≈ 8.98 µM)
MIC [7]: 8 µg/mL (≈ 18 µM)
MIC [8]: 16 µg/mL (≈ 35.9 µM)
MIC [9]: > 128 µg/mL
MIC [10]: 8 µg/mL
MIC [11]: > 128 µg/mL
MIC [12]: > 128 µg/mL
MIC [13]: 32 µg/mL

Fc1ccc(C(Cn2cncn2)[Se]Cc2ccc(Cl)cc2)c(F)c1 (stereo not given)
MIC [1]: 0.13 µg/mL (≈ 0.315 µM)
MIC [2]: 0.13 µg/mL (≈ 0.315 µM)
MIC [3]: 4 µg/mL (≈ 9.69 µM)
MIC [4]: 4 µg/mL (≈ 9.69 µM)
MIC [5]: 128 µg/mL (≈ 310 µM)
MIC [6]: 0.5 µg/mL (≈ 1.21 µM)
MIC [7]: 64 µg/mL (≈ 155 µM)
MIC [8]: 8 µg/mL (≈ 19.4 µM)
MIC [9]: 128 µg/mL
MIC [10]: 16 µg/mL
MIC [11]: > 128 µg/mL
MIC [12]: 4 µg/mL
MIC [13]: 8 µg/mL

Fc1ccc(C(Cn2cncn2)[Se]Cc2ccc(Cl)cc2Cl)c(F)c1 (stereo not given)
MIC [1]: 0.13 µg/mL (≈ 0.291 µM)
MIC [2]: 0.06 µg/mL (≈ 0.134 µM)
MIC [3]: 64 µg/mL (≈ 143 µM)
MIC [4]: 4 µg/mL (≈ 8.95 µM)
MIC [5]: 128 µg/mL (≈ 286 µM)
MIC [6]: 2 µg/mL (≈ 4.47 µM)
MIC [7]: > 128 µg/mL
MIC [8]: 16 µg/mL (≈ 35.8 µM)
MIC [9]: > 128 µg/mL
MIC [10]: 64 µg/mL
MIC [11]: > 128 µg/mL
MIC [12]: > 128 µg/mL
MIC [13]: > 128 µg/mL

Cc1ccc(C[Se]C(Cn2cncn2)c2ccc(Cl)cc2Cl)cc1 (stereo not given)
MIC [1]: 16 µg/mL (≈ 37.6 µM)
MIC [2]: 2 µg/mL (≈ 4.7 µM)
MIC [3]: 128 µg/mL (≈ 301 µM)
MIC [4]: 32 µg/mL (≈ 75.3 µM)
MIC [5]: 64 µg/mL (≈ 151 µM)
MIC [6]: 2 µg/mL (≈ 4.7 µM)
MIC [7]: 64 µg/mL (≈ 151 µM)
MIC [8]: 16 µg/mL (≈ 37.6 µM)
MIC [9]: > 128 µg/mL
MIC [10]: > 128 µg/mL
MIC [11]: > 128 µg/mL
MIC [12]: > 128 µg/mL
MIC [13]: > 128 µg/mL

Clc1ccc(C[Se]C(Cn2cncn2)c2ccc(Cl)cc2Cl)cc1 (stereo not given)
MIC [1]: 16 µg/mL (≈ 35.9 µM)
MIC [2]: 2 µg/mL (≈ 4.49 µM)
MIC [3]: 128 µg/mL (≈ 287 µM)
MIC [4]: 16 µg/mL (≈ 35.9 µM)
MIC [5]: 128 µg/mL (≈ 287 µM)
MIC [6]: 2 µg/mL (≈ 4.49 µM)
MIC [7]: 64 µg/mL (≈ 144 µM)
MIC [8]: 16 µg/mL (≈ 35.9 µM)
MIC [9]: > 128 µg/mL
MIC [10]: > 128 µg/mL
MIC [11]: > 128 µg/mL
MIC [12]: > 128 µg/mL
MIC [13]: > 128 µg/mL

Cc1ccc(C[Se]C(Cn2cncn2)c2ccc(F)cc2F)cc1 (stereo not given)
MIC [1]: 2 µg/mL (≈ 5.1 µM)
MIC [2]: 2 µg/mL (≈ 5.1 µM)
MIC [3]: 32 µg/mL (≈ 81.6 µM)
MIC [4]: 4 µg/mL (≈ 10.2 µM)
MIC [5]: 128 µg/mL (≈ 326 µM)
MIC [6]: 2 µg/mL (≈ 5.1 µM)
MIC [7]: 128 µg/mL (≈ 326 µM)
MIC [8]: 8 µg/mL (≈ 20.4 µM)
MIC [9]: > 128 µg/mL
MIC [10]: 64 µg/mL
MIC [11]: > 128 µg/mL
MIC [12]: > 128 µg/mL
MIC [13]: > 128 µg/mL

Clc1ccc(C(Cn2cncn2)[Se]Cc2ccccc2)c(Cl)c1 (stereo not given)
MIC [1]: 0.13 µg/mL (≈ 0.316 µM)
MIC [2]: 0.13 µg/mL (≈ 0.316 µM)
MIC [3]: 64 µg/mL (≈ 156 µM)
MIC [4]: 2 µg/mL (≈ 4.86 µM)
MIC [5]: 128 µg/mL (≈ 311 µM)
MIC [6]: 4 µg/mL (≈ 9.73 µM)
MIC [7]: 32 µg/mL (≈ 77.8 µM)
MIC [8]: 16 µg/mL (≈ 38.9 µM)
MIC [9]: > 128 µg/mL
MIC [10]: 64 µg/mL
MIC [11]: > 128 µg/mL
MIC [12]: > 128 µg/mL
MIC [13]: > 128 µg/mL
